Assay results published in ChEMBL document CHEMBL3507680, “University of Dundee, Gates Library screen for HepG2 cell viability”.

Experiment: Human HepG2 cell viability assay in 384 well format
Type: toxicity, cell-based
Set-up: dose 125 nL, time 70.5 hour; concentration not given beside the values
Details: HepG2 cells, read-out: Inhibition

| SMILES | cytotoxicity at 70.5 h [%] |
| --- | --- |
| Cc1cc(CN(CC(N)=O)CC(C)C)on1 | 18.1 |
| COCCN1CCC2(CCC1=O)CN(C1CCOCC1)CCN2C (configuration not stated) | -10.7 |
| CCCc1cc(CNC2CCN(c3cc(C(C)C)nc(C)n3)CC2)on1 | -4.25 |
| Cc1cccc(N2CCN(CCNC(=O)c3ccnn3C)CC2)c1 | -9.52 |
| Cc1ccoc1C(=O)N(CCN(C)C)Cc1ccccn1 | -2.01 |
| CNS(=O)(=O)Cc1ccc(CNC(=O)c2cccc(C)n2)cc1 | -1.09 |
| c1ccc(CNc2cc(C3CCCNC3)ccn2)nc1 (configuration not stated) | 20.2 |
| O=C(N[C@@H]1CCC[C@@H](n2ccnc2)[C@@H]1O)c1ccc2c(c1)CCCC2 | 30.9 |
| O=C(NCCC1COc2ccccc2O1)c1ccc(N2CC(O)C2)nc1 (configuration not stated) | -6.19 |
| Cc1ccc(Oc2ncccc2CNC2Cc3ccccc3C2)cn1 | -8.21 |
| CCCOCC(=O)N1CCC2(CC1)c1nc[nH]c1CCN2S(C)(=O)=O | -5.48 |
| Cc1ccc(CN2CCCn3nnc(COCC4CC4)c3C2)s1 | -1.67 |
| CC(=O)NCCSCCOc1cccc(Br)c1 | 17.6 |
| c1ccc(CN2C[C@@H]3OCCN(CC4CCCO4)[C@@H]3C2)nc1 (some centres not stated) | -9.93 |
| O=C1CC(c2cccnc2)c2c(c(C(=O)O)cn2-c2ccccc2F)N1 (configuration not stated) | -13.2 |
| CCOc1ccc2[nH]c(=O)c(CN3CCC(N4CCCC4)CC3)cc2c1 | -4.41 |
| CN1C[C@@H](C(=O)NCC(F)(F)F)[C@@]2(CCc3ccccc3C(=O)N2)C1 | 3.97 |
| N#CCCCn1cnc2c(F)cc(Br)cc2c1=O | -5.69 |
| Fc1ccc(CN2CCC3(CCCN(c4nncs4)C3)C2)cc1 (configuration not stated) | -2.74 |
| Cc1noc(CN2CCCC(Cn3nc(C)nc3C)C2)n1 (configuration not stated) | -6.06 |
| Cc1c(C)n(Cc2ccncc2)c2nc3c(c(N)c12)CCCCC3 | 25.4 |
| CC(C)CN1C[C@@H](C(=O)O)C[C@@H](C(=O)NCc2ccncc2)C1 | -2.12 |
| O=C(CC1CCCC1)N1CCN2C[C@@H](CO)[C@H](c3ccccc3)[C@H]2C1 | 24.2 |

| SMILES | cytotoxicity at 70.5 h [%] |
| --- | --- |
| C1CN(CC2CCOCC2)Cc2c(CN3CCOCC3)nnn2C1 | 6.54 |
| Cc1ncc(CN(C)CC(O)c2cccc(C(F)(F)F)c2)s1 (configuration not stated) | 17.1 |
| Cc1nn(C)c(N2CCOCC2)c1CNCc1ccc2c(c1)OCO2 | -5.61 |
| CSc1nc2ccsc2c(=O)n1CC(=O)N(C)C1CCCCC1 | -5.09 |
| Cc1nc([C@@H]2C[C@H]3CN(Cc4ccc5c(c4)OCO5)C[C@H]3O2)no1 | -10.1 |
| Cc1ccc(Oc2ncccc2CNC(=O)NC2CCCCC2)cn1 | -6.45 |
| CCc1noc(C(C)N(C)CC(=O)Nc2c(C)cccc2C)n1 (configuration not stated) | -4.56 |
| Cc1noc(NC(=O)c2ccc(OC(F)(F)F)cc2)n1 | 55.7 |
| Cc1ccc(CN2Cc3nnn(C)c3C(COCC3CC3)C2)s1 (configuration not stated) | 4.45 |
| NC(=O)c1ccc(C2CCCN2C(=O)CCn2nnc3ccccc32)s1 (configuration not stated) | -4.98 |
| CCc1nnc(C2Cc3ccccc3CN2Cc2ncc(Cl)n2C)o1 (configuration not stated) | -6.23 |
| COC(=O)C(C)(C)NC(=O)C1CC(=O)N(CC(F)(F)F)C1 (configuration not stated) | 0.904 |
| O=C(NCc1ccco1)[C@H]1CC[C@@H]2[C@@H](CCN2c2ncccn2)O1 | 12.4 |
| COc1ccc(CC(C)(O)CNC(=O)NCc2cccs2)cc1 (configuration not stated) | -13.9 |
| CN(CCCc1ccccc1)C(=O)c1ccccc1NCC(=O)O | -13.3 |
| COc1c(C2CCCN2Cc2csc(C(C)C)n2)c(C)nn1C (configuration not stated) | 41 |
| COCCn1cc(CCC(=O)Nc2c(C)nn(C)c2C)c2ccccc21 | 49.6 |
| Cc1nc(N2CCC3(CCCN(CCO)C3=O)C2)c2sccc2n1 (configuration not stated) | -7.31 |
| CC(=O)NCC(=O)N1CCC(c2cncc(Oc3cccnc3)n2)CC1 | -9.15 |
| CCOC1CC2(CCN(CCO)CC2)c2ccc(C)cc21 (configuration not stated) | 1.71 |
| CC(C)CC(NC(=O)c1cccs1)c1nc2cccnc2n1C (configuration not stated) | -5.14 |
| NC(=O)CN1CCCN(C(=O)Cc2ccc3ccccc3c2)CC1 | 33.3 |
| COC1CCC(N(C)c2ccnc(N(C)C)n2)CC1 (configuration not stated) | -7.23 |

| SMILES | cytotoxicity at 70.5 h [%] |
| --- | --- |
| CC(=O)N1CCNCC1c1cccc(C(=O)N(C)C)c1 (configuration not stated) | -8.36 |
| Cn1cccc1CN1CCC2(CC1)CCN(C(=O)c1cnccn1)CC2 | 10.8 |
| COc1cnc(N2C[C@@H](CN3CCOCC3)C[C@H](CO)C2)nc1 | -2.56 |
| CCOC(=O)N(C)CC(=O)NCCc1coc(-c2ccc(C)cc2)n1 | -8.2 |
| c1cc(CN2CCc3cncnc3C2)c2c(c1)OCCO2 | -6.07 |
| O=C(CNc1ccc(OC2CCOC2)cc1)NCc1ccc(F)cc1 (configuration not stated) | -10.9 |
| O=C(CCc1nc(-c2ccccn2)no1)N1CCCC1c1ccsc1 (configuration not stated) | -10.3 |
| Cc1cccc(CC(=O)NC2CCN(C(=O)NC(C)(C)C)CC2)c1 | 12.2 |
| c1cnn(CC2CN(CC3CCCC3)CCO2)c1 (configuration not stated) | -9.69 |
| CC(C)c1cc(C(=O)NC2CCN(CC(N)=O)CC2)nn1C(C)(C)C | -10.3 |
| Cc1cccc(CN2CC[C@H]3[C@H]2CCN3Cc2cnn(C)c2)n1 | 30.5 |
| CCn1ccc(C(=O)N2CCCN(Cc3ccccc3F)CC2)cc1=O | 17.5 |
| CO[C@@H]1CCN(C(=O)Cc2cccc(F)c2)[C@H]1Cc1cccnc1 | -3.88 |
| CC(=O)NC1CC(C)(C)Cc2c1cnn2-c1cccc(F)c1 (configuration not stated) | -9.9 |
| CSCCC(=O)N1C[C@@H](C)[C@](O)(C(C)C)C1 | -9.47 |
| COc1cccc(CC(=O)NC2CCCc3cn[nH]c32)c1 (configuration not stated) | -0.729 |
| COc1cc(C)ccc1OCCC(=O)N1CCCC(n2cncn2)C1 (configuration not stated) | -9.18 |
| CCc1nc(CN(C)C2CCN(CCn3cc(C#N)cn3)C2)no1 (configuration not stated) | 37.1 |
| Cc1noc(C)c1CN(C)Cc1cnc(N2CCOCC2)nc1 | -4.31 |
| Cc1cccc(OCC(=O)N(Cc2ccncc2)C2CC2)c1 | -0.457 |
| NC(=O)c1cc(CC2CCCN(Cc3cnccn3)CC2)ncn1 (configuration not stated) | -2.22 |
| CC(C)(Oc1ccc(C(N)=O)cc1)C(=O)N(CCC#N)C1CC1 | -1.36 |
| CCOCc1cncc2c1CCN(S(=O)(=O)c1cccc(C)c1)C2 | -4.1 |

| SMILES | cytotoxicity at 70.5 h [%] |
| --- | --- |
| CC(C)c1ccc(OCCC(=O)N2CCC(C(N)=O)CC2)cc1 | -4.09 |
| O=c1cc(CN2CCCC2)nc2n1CCCN(CC1CC1)C2 | 20.8 |
| Cc1nnc(CN2CCCC2c2ccc(C(C)(C)C)cc2)o1 (configuration not stated) | -3.63 |
| CCOC(=O)N1CCc2ccccc2C12CCNCC2 | -2.47 |
| Cc1cccc2c1N(C)C(=O)C21CC(=O)Nc2c1cnn2C(C)(C)C (configuration not stated) | -18.4 |
| CC(C)c1nnc2n1CCN(CCCS(=O)(=O)c1ccccc1)C2 | -13.8 |
| Cn1nc(C2CCN(C(=O)c3cnccn3)C2)cc1CCO (configuration not stated) | -2.35 |
| CS(=O)(=O)N1CCC2(CC1)CC(NCc1ccco1)c1ccccc12 (configuration not stated) | -1.03 |
| CN(C)c1cccc(CNC(=O)Nc2cc(C#N)ccc2Cl)n1 | -4.82 |
| C[C@H]1CN2C[C@H](O)CC2CN1Cc1ccc2nccnc2c1 (some centres not stated) | -1.32 |
| CC(C)NC(=O)COc1cccc(-c2nc(C(C)C)no2)c1 | 20.9 |
| COc1ccc(Oc2ncccc2C(N)=O)cc1CN1CCCC1 | -7.33 |
| Cc1ccc(OCC(=O)N2CCN[C@H]3CS(=O)(=O)C[C@H]32)cn1 | -16.7 |
| Cc1noc(C)c1CCC(=O)N1CCN(CCn2cccn2)CC1 | 14.6 |
| CCOc1ccc(CN(CC)C(=O)c2ccc(C)[nH]c2=O)cc1OC | -0.243 |
| CCC[C@H]1CN(C2CCOCC2)C[C@@H]1NC(=O)CCn1ccnc1C | 3.94 |
| Cc1ccccc1C(C)NC(=O)CN1CCN(Cc2ccc(Br)s2)CC1 (configuration not stated) | 18.7 |
| O=S(=O)(NCCCN1CC=CC1)c1cncc(Cl)c1 | 29.6 |
| N#CC1(NC(=O)c2nccc3ccccc23)CCSCC1 | -9.79 |
| COCC(=O)N1C[C@H]2CCC[C@@]2(COC)C1 | -5.02 |
| CCc1cc(=O)[nH]c(-c2ccc(NCCc3ccc(O)cc3)nc2)n1 | -3.24 |
| CC(C)CS(=O)(=O)Nc1ccc([C@H]2OCC(=O)N[C@@H]2CO)cc1 | 0.34 |
| COc1cc2[nH]c(=O)c(CN3CCC[C@@H]3C(N)=O)cc2c(OC)c1OC | 23.4 |

| SMILES | cytotoxicity at 70.5 h [%] |
| --- | --- |
| O=C(CCn1cc(Cl)cn1)Nc1ncccn1 | -4.36 |
| Cc1ccc(NC(=O)c2cccc(N(C)C)c2)nc1 | -8.66 |
| O=S(=O)(C1CC1)N1CCOCC2(CCN(c3ccccn3)C2)C1 (configuration not stated) | 36.2 |
| COCCCN(Cc1ccncc1)C(=O)C1COc2ccccc2C1 (configuration not stated) | -14.9 |
| CC(C)c1nccc(-c2nccn2CCN(C)S(C)(=O)=O)n1 | 19 |
| CN(C)c1ccc(C(=O)N2CCC(c3cc4ncccc4[nH]3)CC2)cc1 | -1.4 |
| O=C(Cc1ccsc1)N1C[C@H]2CCC[C@@]2(COCc2ccccn2)C1 | 10.5 |
| COCCN1CCC(c2nc3ccc(-c4ccccc4)cn3n2)CC1 | 1.72 |
| Cc1nc(CO[C@@H]2CN(Cc3ccccn3)[C@@H]3COC[C@@H]32)cs1 | -7.36 |
| CS(=O)(=O)c1ccc2c(c1)N(C(=O)Cc1cccc(F)c1)CCC2 | -0.9 |
| Cn1cc(CCNC(=O)N2CCCc3c(F)cccc32)cn1 | 3.99 |
| CC1COCCN1C(=O)c1cccc(OCc2cscn2)c1 (configuration not stated) | -8.23 |
| CN1CCN(c2ncccc2CNc2ncccc2C#N)CC1 | -10.7 |
| CCOCCNc1nc(C2CCCC2)nc2c1cnn2C | 0.172 |
| c1cnc(N2CCO[C@H]3CN(CC4CCC4)C[C@H]32)cn1 | -4.76 |
| Cc1nc(C2CCCN2C(=O)c2ccc(F)cc2)ncc1C(N)=O (configuration not stated) | -3.31 |
| O=C(NCCCNc1ccc(C(F)(F)F)cn1)c1ccc(F)cc1Br | -6.12 |
| CC(=O)N1CC(=O)N(c2ccccc2)CC12CCN(Cc1ccoc1)C2 (configuration not stated) | -14.4 |
| c1csc(CN2C[C@H](OCC3CC3)[C@H]3COC[C@H]32)n1 | -3.74 |
| CC(C)(C)c1ncc2c(n1)CN(C(=O)c1ccc(-c3nc[nH]n3)cc1)C2 | -1.51 |
